Reference: patent US7906655B2, “Hepatitis C virus inhibitors” (Bristol-Myers Squibb Company, priority 2008, dated 2011)

System: HCV 1b genotype
Test: HCV Replicon assay (HCV-neo replicon cells, wild-type)
Type: cell-based
Conditions: HCV 1b genotype replicon
Procedure: An HCV Replicon assay was utilized in the present disclosure, and was prepared, conducted and validated as described in commonly owned PCT/US2006/022197 and in O'Boyle et. al. Antimicrob Agents Chemother. 2005 April; 49 (4):1346-53. Assay methods incorporating luciferase reporters have also been used as described (Apath.com).
HCV-neo replicon cells and replicon cells containing mutations in the NS5A region were used to test the currently described family of compounds. The compounds were determined to have more than 10-fold less inhibitory activity on cells containing mutations than wild-type cells. Thus, the compounds of the present disclosure can be effective in inhibiting the function of the HCV NS5A protein and are understood to be as effective in combinations as previously described in application PCT/US2006/022197 and commonly owned WO/O4014852. Further, the compounds of the present disclosure can be effective against the HCV 1b genotype. It should also be understood that the compounds of the present disclosure can inhibit multiple genotypes of HCV. […] In one embodiment, compounds of the present disclosure are inhibitory versus 1a, 1b, 2a, 2b, 3a, 4a, and 5a genotypes.

[1] = Hepatitis C virus, numeric values
[2] = Hepatitis C virus, class symbols

| SMILES | EC50 [2] | also measured |
| --- | --- | --- |
| C[C@H](NC(=O)[C@@H](c1ccccc1)N(C)C)c1nc2c(-c3ncc(-c4ccc5[nH]c([C@@H]6CCCN6C(=O)[C@@H](c6ccccc6)N(C)C)nc5c4)o3)cccc2[nH]1 [Example J26, (2R)-2-(dimethyl-amino)-N-((1S)-1-(4-(5-(2-((2S)-1-((2R)-2-(dimethyl-amino)-2-phenylacetyl)-2-pyrrolidinyl)-1H-benzimidazol-5-yl)-1,3-oxazol-2-yl)-1H-benzimidazol-2-yl)ethyl)-2-phenyl-acetamide] | – | EC50 [1]: 0.021 nM |
| CC(=O)N1CCC[C@H]1c1nc2c(-c3ncc(-c4ccc5[nH]c([C@@H]6CCCN6C(=O)[C@@H](c6ccccc6)N(C)C)nc5c4)o3)cccc2[nH]1 [Example J27, (1R)-2-((2S)-2-(5-(2-(2-((2S)-1-acetyl-2-pyrrolidinyl)-1H-benzimidazol-4-yl)-1,3-oxazol-5-yl)-1H-benzimidazol-2-yl)-1-pyrrolidinyl)-N,N-dimethyl-2-oxo-1-phenyl-ethanamine] | < 4.57 nM | – |
| CN(C)CC(=O)N1CCC[C@H]1c1nc2c(-c3ncc(-c4ccc5[nH]c([C@@H]6CCCN6C(=O)[C@@H](c6ccccc6)N(C)C)nc5c4)o3)cccc2[nH]1 [Example J28, (1R)-2-((2S)-2-(5-(2-(2-((2S)-1-((dimethyl-amino)acetyl)-2-pyrrolidinyl)-1H-benzimidazol-4-yl)-1,3-oxazol-5-yl)-1H-benzimidazol-2-yl)-1-pyrrolidinyl)-N,N-dimethyl-2-oxo-1-phenyl-ethanamine] | < 4.57 nM | – |
| COC(=O)N[C@@H](C(=O)N1CCC[C@H]1c1nc2cc(-c3cnc(-c4cccc5[nH]c([C@@H]6CCCN6C(=O)[C@@H](c6ccccc6)N6CCN(C)CC6)nc45)o3)ccc2[nH]1)c1ccccc1 [Example J29, methyl ((1R)-2-(((2S)-2-(5-(2-(2-((2S)-1-((2R)-2-(4-methyl-1-piperazinyl)-2-phenylacetyl)-2-pyrrolidinyl)-1H-benzimidazol-4-yl)-1,3-oxazol-5-yl)-1H-benzimidazol-2-yl)-1-pyrrolidinyl)-2-oxo-1-phenylethyl) carbamate] | < 4.57 nM | – |
| COC(=O)N[C@@H](C(=O)N1CCC[C@H]1c1nc2c(-c3ncc(-c4ccc5[nH]c([C@@H]6CCCN6C(=O)[C@@H](c6ccccc6)N6CCN(C)CC6)nc5c4)o3)cccc2[nH]1)c1ccccc1 [Example J30, methyl ((1R)-2-((2S)-2-(4-(5-(2-((2S)-1-((2R)-2-(4-methyl-1-piperazinyl)-2-phenylacetyl)-2-pyrrolidinyl)-1H-benzimidazol-5-yl)-1,3-oxazol-2-yl)-1H-benzimidazol-2-yl)-1-pyrrolidinyl)-2-oxo-1-phenylethyl) carbamate] | – | EC50 [1]: 0.058 nM |
| CN(C)[C@@H](C(=O)N1CCC[C@H]1c1nc2ccc(C(=O)c3ccc4nc([C@@H]5CCCN5C(=O)[C@@H](c5ccccc5)N(C)C)[nH]c4c3)cc2[nH]1)c1ccccc1 [Example J32, bis(2-((2S)-1-((2R)-2-(dimethylamino)-2-phenylacetyl)-2-pyrrolidinyl)-1H-benzimidazol-5-yl)methanone] | 4.57 to 99 nM | – |
| COC(=O)N[C@@H](C(=O)N1CCC[C@H]1c1nc2ccc(C(=O)c3ccc4nc([C@@H]5CCCN5C(=O)[C@H](NC(=O)OC)c5ccccc5)[nH]c4c3)cc2[nH]1)c1ccccc1 [Example J33] | < 4.57 nM | – |
| C[C@@H](C(=O)N1CCC[C@H]1c1nc2cc(C#Cc3ccc4[nH]c([C@@H]5CCCN5C(=O)[C@H](C)c5ccccc5)nc4c3)ccc2[nH]1)c1ccccc1 [Example M1, 5,5′-(1,2-ethynediyl)bis(2-((2S)-1-((2R)-2-phenylpropanoyl)-2-pyrrolidinyl)-1H-benzimidazole)] | < 4.57 nM | – |
| CCC(=O)N1CCC[C@H]1c1nc2cc(C#Cc3ccc4[nH]c([C@@H]5CCCN5C(=O)CC)nc4c3)ccc2[nH]1 [Example M2] | – | EC50 (class symbols): 4.57 to 99 nM |
| CC(C)C(=O)N1CCC[C@H]1c1nc2cc(C#Cc3ccc4[nH]c([C@@H]5CCCN5C(=O)C(C)C)nc4c3)ccc2[nH]1 [Example M3, 5,5′-(1,2-ethynediyl)bis(2-((2S)-1-isobutyryl-2-pyrrolidinyl)-1H-benzimidazole)] | 4.57 to 99 nM | – |
| O=C(C1CC1)N1CCC[C@H]1c1nc2cc(C#Cc3ccc4nc([C@@H]5CCCN5C(=O)C5CC5)[nH]c4c3)ccc2[nH]1 [Example M4, 2-((2S)-1-(cyclopropylcarbonyl)-2-pyrrolidinyl)-5-((2-((2S)-1-(cyclopropylcarbonyl)-2-pyrrolidinyl)-1H-benzimidazol-6-yl)ethynyl)-1H-benzimidazole] | 4.57 to 99 nM | – |
| O=C([C@H]1CCCO1)N1CCC[C@H]1c1nc2cc(C#Cc3ccc4[nH]c([C@@H]5CCCN5C(=O)[C@H]5CCCO5)nc4c3)ccc2[nH]1 [Example M5, 5,5′-(1,2-ethynediyl)bis(2-((2S)-1-((2R)-tetrahydro-2-furanylcarbonyl)-2-pyrrolidinyl)-1H-benzimidazole)] | – | EC50 [1]: 10 nM |
| O=C(c1ccccc1)N1CCC[C@H]1c1nc2cc(C#Cc3ccc4nc([C@@H]5CCCN5C(=O)c5ccccc5)[nH]c4c3)ccc2[nH]1 [Example M6, 2-((2S)-1-benzoyl-2-pyrrolidinyl)-5-((2-((2S)-1-benzoyl-2-pyrrolidinyl)-1H-benzimidazol-6-yl)ethynyl)-1H-benzimidazole] | 4.57 to 99 nM | – |
| O=C(Cc1ccccn1)N1CCC[C@H]1c1nc2cc(C#Cc3ccc4[nH]c([C@@H]5CCCN5C(=O)Cc5ccccn5)nc4c3)ccc2[nH]1 [Example M7, 5,5′-(1,2-ethynediyl)bis(2-((2S)-1-(2-pyridinylacetyl)-2-pyrrolidinyl)-1H-benzimidazole)] | – | EC50 (class symbols): < 4.57 nM |
| O=C(CC1CC1)N1CCC[C@H]1c1nc2cc(C#Cc3ccc4nc([C@@H]5CCCN5C(=O)CC5CC5)[nH]c4c3)ccc2[nH]1 [Example M8, 2-((2S)-1-(cyclopropylacetyl)-2-pyrrolidinyl)-5-((2-((2S)-1-(cyclopropylacetyl)-2-pyrrolidinyl)-1H-benzimidazol-6-yl)ethynyl)-1H-benzimidazole] | 4.57 to 99 nM | – |
| O=C(C1CCC1)N1CCC[C@H]1c1nc2cc(C#Cc3ccc4nc([C@@H]5CCCN5C(=O)C5CCC5)[nH]c4c3)ccc2[nH]1 [Example M9, 2-((2S)-1-(cyclobutylcarbonyl)-2-pyrrolidinyl)-5-((2-((2S)-1-(cyclobutylcarbonyl)-2-pyrrolidinyl)-1H-benzimidazol-6-yl)ethynyl)-1H-benzimidazole] | 4.57 to 99 nM | – |
| O=C(c1cccs1)N1CCC[C@H]1c1nc2cc(C#Cc3ccc4[nH]c([C@@H]5CCCN5C(=O)c5cccs5)nc4c3)ccc2[nH]1 [Example M10, 5,5′-(1,2-ethynediyl)bis(2-((2S)-1-(2-thienylcarbonyl)-2-pyrrolidinyl)-1H-benzimidazole)] | – | EC50 [1]: 10 nM |
| O=C(Cc1cccnc1)N1CCC[C@H]1c1nc2cc(C#Cc3ccc4[nH]c([C@@H]5CCCN5C(=O)Cc5cccnc5)nc4c3)ccc2[nH]1 [Example M11, 5,5′-(1,2-ethynediyl)bis(2-((2S)-1-(3-pyridinylacetyl)-2-pyrrolidinyl)-1H-benzimidazole)] | < 4.57 nM | – |
| Cn1cccc1C(=O)N1CCC[C@H]1c1nc2cc(C#Cc3ccc4[nH]c([C@@H]5CCCN5C(=O)c5cccn5C)nc4c3)ccc2[nH]1 [Example M12, 5,5′-(1,2-ethynediyl)bis(2-((2S)-1-((1-methyl-1H-pyrrol-2-yl)carbonyl)-2-pyrrolidinyl)-1H-benzimidazole)] | 4.57 to 99 nM | – |
| O=C(c1ccoc1)N1CCC[C@H]1c1nc2cc(C#Cc3ccc4[nH]c([C@@H]5CCCN5C(=O)c5ccoc5)nc4c3)ccc2[nH]1 [Example M13, 5,5′-(1,2-ethynediyl)bis(2-((2S)-1-(3-furoyl)-2-pyrrolidinyl)-1H-benzimidazole)] | < 4.57 nM | – |
| O=C(C1CCOC1)N1CCC[C@H]1c1nc2cc(C#Cc3ccc4[nH]c([C@@H]5CCCN5C(=O)C5CCOC5)nc4c3)ccc2[nH]1 (stereo partly drawn) [Example M14, 5,5′-(1,2-ethynediyl)bis(2-((2S)-1-(tetrahydro-3-furanylcarbonyl)-2-pyrrolidinyl)-1H-benzimidazole)] | 4.57 to 99 nM | – |
| O=C([C@H](O)c1ccccc1)N1CCC[C@H]1c1nc2cc(C#Cc3ccc4[nH]c([C@@H]5CCCN5C(=O)[C@H](O)c5ccccc5)nc4c3)ccc2[nH]1 [Example M15, (1R,1′R)-2,2′-(1,2-ethynediylbis(1H-benzimidazole-5,2-diyl(2S)-2,1-pyrrolidinediyl))bis(2-oxo-1-phenylethanol)] | < 4.57 nM | – |
| C[C@@](O)(C(=O)N1CCC[C@H]1c1nc2cc(C#Cc3ccc4[nH]c([C@@H]5CCCN5C(=O)[C@@](C)(O)c5ccccc5)nc4c3)ccc2[nH]1)c1ccccc1 [Example M16] | – | EC50 (class symbols): < 4.57 nM |
| COc1ccc2ccc(C(=O)N3CCC[C@H]3c3nc4cc(C#Cc5ccc6[nH]c([C@@H]7CCCN7C(=O)c7ccc8ccc(OC)cc8n7)nc6c5)ccc4[nH]3)nc2c1 [Example M17, 2,2′-(1,2-ethynediylbis(1H-benzimidazole-5,2-diyl(2S)-2,1-pyrrolidinediylcarbonyl))bis(7-methoxyquinoline)] | – | EC50 [1]: 20 nM |
| COc1cccc2c(C(=O)N3CCC[C@H]3c3nc4cc(C#Cc5ccc6nc([C@@H]7CCCN7C(=O)c7nc(Cl)cc8c(OC)cccc78)[nH]c6c5)ccc4[nH]3)nc(Cl)cc12 [Example M18, 3-chloro-1-(((2S)-2-(5-((2-((2S)-1-((3-chloro-5-methoxy-1-isoquinolinyl)carbonyl)-2-pyrrolidinyl)-1H-benzimidazol-6-yl)ethynyl)-1H-benzimidazol-2-yl)-1-pyrrolidinyl)carbonyl)-5-methoxyisoquinoline] | 100 to 999 nM | – |
